# Laboratory results from article PMC4774911, “Biochemical Screening of Five Protein Kinases from Plasmodium falciparum against 14,000 Cell-Active Compounds” (PLoS ONE, 2016).
# Where “and” joins values, the source holds several entries; their conditions need not be identical. Equal values may be shown once.
# What was measured:
# Experiment in all cases: biochemical
# Set-up in all cases: endogenous in cells; host or cells: K562 cell extract; species or system K562 (extract); replicate k of n = 2 (each experiment ID is one independent experiment; two experiment IDs per compound)
# Settings in all cases: read-out: KDapp
# CDK10 = CDK10 (Homo sapiens, UniProt Q15131)
# TGFBR1 = target: T1, TGFBR1 (Homo sapiens, UniProt P36897)
# T1 sequence (P36897 1-503): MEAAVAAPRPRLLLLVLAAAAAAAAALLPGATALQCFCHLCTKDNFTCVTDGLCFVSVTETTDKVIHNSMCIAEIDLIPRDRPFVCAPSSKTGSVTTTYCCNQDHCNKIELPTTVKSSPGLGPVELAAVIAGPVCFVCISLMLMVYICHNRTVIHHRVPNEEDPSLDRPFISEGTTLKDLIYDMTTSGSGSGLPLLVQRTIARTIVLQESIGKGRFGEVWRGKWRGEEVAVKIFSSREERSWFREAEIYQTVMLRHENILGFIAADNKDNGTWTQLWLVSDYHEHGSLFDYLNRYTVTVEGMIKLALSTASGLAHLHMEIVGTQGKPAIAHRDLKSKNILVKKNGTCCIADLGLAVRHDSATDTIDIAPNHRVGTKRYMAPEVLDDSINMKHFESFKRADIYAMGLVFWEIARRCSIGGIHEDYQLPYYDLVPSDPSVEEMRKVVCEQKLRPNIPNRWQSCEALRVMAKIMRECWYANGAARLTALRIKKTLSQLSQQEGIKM
# STK4 = target: T2, STK4 (Homo sapiens, UniProt Q13043)
# T2 sequence (Q13043 1-487): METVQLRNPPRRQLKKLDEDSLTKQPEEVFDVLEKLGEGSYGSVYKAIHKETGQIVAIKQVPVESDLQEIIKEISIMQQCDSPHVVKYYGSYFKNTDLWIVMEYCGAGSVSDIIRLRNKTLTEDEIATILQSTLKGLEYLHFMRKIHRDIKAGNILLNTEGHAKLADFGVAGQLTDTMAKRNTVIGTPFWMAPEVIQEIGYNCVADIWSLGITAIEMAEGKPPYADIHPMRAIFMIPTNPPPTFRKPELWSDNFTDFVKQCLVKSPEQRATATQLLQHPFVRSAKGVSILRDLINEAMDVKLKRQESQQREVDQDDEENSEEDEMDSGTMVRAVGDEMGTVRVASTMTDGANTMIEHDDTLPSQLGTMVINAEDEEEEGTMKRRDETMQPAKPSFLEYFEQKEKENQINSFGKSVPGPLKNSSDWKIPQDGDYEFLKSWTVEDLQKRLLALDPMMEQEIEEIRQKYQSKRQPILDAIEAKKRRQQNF
# TEC = target: T3, TEC (Homo sapiens, UniProt P42680)
# T3 sequence (P42680 1-631): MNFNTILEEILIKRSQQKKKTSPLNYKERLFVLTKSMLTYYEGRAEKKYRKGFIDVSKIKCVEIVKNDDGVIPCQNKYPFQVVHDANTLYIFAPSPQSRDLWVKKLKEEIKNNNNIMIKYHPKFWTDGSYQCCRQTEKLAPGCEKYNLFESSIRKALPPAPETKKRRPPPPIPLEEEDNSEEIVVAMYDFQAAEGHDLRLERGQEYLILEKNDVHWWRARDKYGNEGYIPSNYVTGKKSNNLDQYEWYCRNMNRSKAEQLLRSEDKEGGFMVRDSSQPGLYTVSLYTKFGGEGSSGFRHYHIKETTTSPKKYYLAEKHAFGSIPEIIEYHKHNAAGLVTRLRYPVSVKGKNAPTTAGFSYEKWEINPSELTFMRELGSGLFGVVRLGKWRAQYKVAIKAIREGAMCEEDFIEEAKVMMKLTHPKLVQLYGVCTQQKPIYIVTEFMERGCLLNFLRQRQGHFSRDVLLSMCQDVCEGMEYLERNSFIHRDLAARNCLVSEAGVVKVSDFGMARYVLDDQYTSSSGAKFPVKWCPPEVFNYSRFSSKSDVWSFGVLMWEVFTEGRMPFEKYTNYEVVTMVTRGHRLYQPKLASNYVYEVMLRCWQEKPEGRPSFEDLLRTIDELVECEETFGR
# LIMK1 = LIMK1 (Homo sapiens, UniProt P53667)
# STK38L = STK38L (Homo sapiens, UniProt Q9Y2H1)
# STK38L, sequence (Q9Y2H1 whole entry): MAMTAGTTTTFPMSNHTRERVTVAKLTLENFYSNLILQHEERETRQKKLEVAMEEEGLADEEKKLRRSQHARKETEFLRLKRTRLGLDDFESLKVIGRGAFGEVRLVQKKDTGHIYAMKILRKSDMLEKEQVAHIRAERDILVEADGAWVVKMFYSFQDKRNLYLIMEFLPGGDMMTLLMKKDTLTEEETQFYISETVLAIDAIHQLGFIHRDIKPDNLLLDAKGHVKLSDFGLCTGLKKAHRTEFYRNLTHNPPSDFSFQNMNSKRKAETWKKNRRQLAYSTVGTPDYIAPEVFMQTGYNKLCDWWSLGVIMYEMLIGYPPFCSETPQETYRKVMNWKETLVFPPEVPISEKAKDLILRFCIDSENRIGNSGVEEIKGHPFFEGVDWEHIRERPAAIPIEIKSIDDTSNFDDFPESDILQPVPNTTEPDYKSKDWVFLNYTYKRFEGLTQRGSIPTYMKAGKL
# CDK10, sequence (Q15131 whole entry): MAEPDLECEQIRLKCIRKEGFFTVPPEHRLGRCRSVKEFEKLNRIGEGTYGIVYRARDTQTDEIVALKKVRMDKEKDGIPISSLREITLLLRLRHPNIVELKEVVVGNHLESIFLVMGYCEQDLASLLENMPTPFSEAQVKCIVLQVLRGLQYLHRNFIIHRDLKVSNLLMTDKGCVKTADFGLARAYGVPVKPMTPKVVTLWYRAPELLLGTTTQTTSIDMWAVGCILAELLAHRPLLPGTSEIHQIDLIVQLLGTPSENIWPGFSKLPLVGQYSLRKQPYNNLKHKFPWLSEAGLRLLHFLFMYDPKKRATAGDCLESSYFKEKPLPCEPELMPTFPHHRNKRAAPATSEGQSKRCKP
# LIMK1, sequence (P53667 whole entry): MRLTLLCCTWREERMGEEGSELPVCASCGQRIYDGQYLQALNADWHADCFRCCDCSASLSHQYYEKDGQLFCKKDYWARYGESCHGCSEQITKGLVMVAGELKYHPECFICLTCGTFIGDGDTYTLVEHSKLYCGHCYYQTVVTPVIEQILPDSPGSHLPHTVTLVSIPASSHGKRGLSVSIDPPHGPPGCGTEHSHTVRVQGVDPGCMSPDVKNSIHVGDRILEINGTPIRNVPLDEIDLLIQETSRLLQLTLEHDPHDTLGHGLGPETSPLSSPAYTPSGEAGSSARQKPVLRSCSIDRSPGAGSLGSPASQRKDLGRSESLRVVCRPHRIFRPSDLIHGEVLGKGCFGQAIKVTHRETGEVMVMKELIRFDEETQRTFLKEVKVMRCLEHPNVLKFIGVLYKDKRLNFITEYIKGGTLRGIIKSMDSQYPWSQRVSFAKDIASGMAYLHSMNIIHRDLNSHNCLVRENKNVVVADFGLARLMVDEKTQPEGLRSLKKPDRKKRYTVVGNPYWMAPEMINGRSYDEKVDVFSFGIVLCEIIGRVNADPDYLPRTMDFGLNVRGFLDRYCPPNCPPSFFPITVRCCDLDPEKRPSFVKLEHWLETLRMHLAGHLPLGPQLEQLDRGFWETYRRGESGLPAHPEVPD
smiles,measurement,setting,value
CN(C)CC(O)COc1ccc(Nc2ncc([N+](=O)[O-])c(Nc3ccccc3O)n2)cc1.O=C(O)C(F)(F)F (stereo not drawn) [TCMDC-141399],Kd,CDK10,630 nM
Cl.NCC1(c2nc(-c3ccc(Cl)c(O)c3)c(-c3ccncc3)[nH]2)CCCCC1 [TCMDC-141154],Kd,TGFBR1,59.6 nM and 87.9 nM
CN1CCN(c2ccc(Nc3ncc(C#N)c(Nc4ccccc4C(N)=O)n3)cc2)CC1.Cl [TCMDC-134116],Kd,STK4,121 nM and 140 nM
same,Kd,TEC,137 nM and 146 nM
same,Kd,LIMK1,121 nM
same,Kd,STK38L,571 nM
